Test [1] has as its system GPI-PLC, rat adipocyte plasma membrane/DIGs. Description: Inhibition of adipocyte GPI-PLC (plasma membranes, lcDIGs or hcDIGs), substrate AChE. Type of test: biochemical.
Test [2] deals with GPI-PLC, intact rat adipocytes. Description: GPI-PLC activity in intact rat adipocytes (amphiphilic-to-hydrophilic conversion of endogenous 5'-Nuc, Gce1, aP). Type of test: cell-based. The protocol: Adipocytes isolated by digestion from epididymal fat pads of male rats (120-140 g, fed ad libitum, see Ref. 53 [Muller et al.; Mol. Cell. Biol. 21:[…] (2001)]) were washed twice in KRH (20 mM Hepes/KOH, pH 7.4, 1.2 mM KH2PO4, 140 mM NaCl, 4.7 mM KCl, 2.5 mM CaCl2, 1.2 mM MgSO4) containing 1% (w/v) BSA and then incubated in the same medium supplemented with 100 μg/ml gentamycin, 100 nM 1-methyl-2-phenylethyladenosine, 0.5 U/ml adenosine deaminase, 1 mM sodium pyruvate and 5 mM D-glucose in the absence or presence of GPI-2350 (prepared as 10 mM stock solution in DMSO, the final DMSO concentration in the in vitro and adipocyte incubations was kept constant at 0.5% at any inhibitor concentration), insulin or glimepiride (prepared as described in “Müller et al. (1994) J. Cell. Biol. 126:1267-1276”) at 37° C. in a shaking water bath at constant bubbling with 5% CO2/95% O2 at a final titer of 100 μl of packed cell volume per ml incubation volume (determined by aspiration of small aliquots into capillary hematocrit tubes and centrifugation for 60 s [seconds] in a microhematocrit centrifuge in order to determine the fractional occupation of the suspension by the adipocytes; 10% cytocrit corresponds to about 1.5×10^6 cells/ml) for the periods indicated. […]

In test [3] the test system is lipolysis, rat adipocytes. Kind of test: Isoproterenol-induced lipolysis in rat adipocytes. Type of test: cell-based. The settings on record: GPI-2350 50 μM. The protocol: Electroporation was performed as described in “Müller, G. et al., (2000) Mol. Cell. Biol. 20: 4708-4723”. Lipolysis was determined as release of glycerol or fluorescent NBD-FA from prelabeled and isoproterenol-stimulated adipocytes as described in “Müller, G. et al., (2003) Biochimie 85: 1245-1256”. Gce1 was detected by photolabeling of solubilized plasma membranes or hc/lcDIGs (10-50 μg protein) with 8-N3—[^32P]cAMP and subsequent phosphorimaging as described in “Müller, G. et al., (1994) Biochemistry 33: 12149-12159”. 5′-Nuc, aP and AChE activities were measured according to “Eliakim, R. et al., (1990) Biochim. Biophys. Acta 1355: 293-302”. Protein was determined using the BCA protein determination kit from Pierce (Rockford, Ill.) and BSA as calibration standard. SDS-PAGE was performed using precast gels (Novex, San Diego, Calif.; 10% Bis-Tris resolving gel, morpholinopropanesulfonic acid-SDS running buffer). Lumiimages were evaluated on a LumiImager using LumiImager software (Roche Diagnostics). Phosphor- and fluorescence images were processed and quantified using the Storm 860 PhosphorImager system (Molecular Dynamics, Gelsenkirchen, Germany). Figures were constructed using the ADOBE PHOTOSHOP software (Adobe Systems, Mountain View, Calif.). […]

pIC50: −log10 of the molar value.

As for `CCCCCCCCCCCCP1(=O)O[C@@H]2[C@H](O)[C@@H](O)[C@H](O)[C@@H](O)[C@@H]2O1` (stereo partly shown) [GPI-2350, myo-inositol-1,2-cyclo-dodecylphosphonic acid], the inhibition in words result in test [1] was “potent inhibitor”. For the same compound, the pIC50 in test [2] (FIG. 8, read-out: concentration of half-maximal inhibition of the GPI-PLC) was 5.30. The “reduction of basal and glimepiride-/insulin-stimulated GPI-PLC activity” value in test [2] (intact adipocytes, concentration-dependent) was “to lower than basal and similar levels”. Moreover, the “glimepiride inhibition of lipolysis with GPI-2350” value in test [3] is “to lower than control values”.
